In patent publication US12295396B2, “Antagonists of T2R54 and compositions and uses thereof” (Firmenich Incorporated, priority 2018, dated 2025):

The compounds below were run against T1, hT2R54 (Homo sapiens, UniProt P59534) (assay: Cell-based assay for measuring hT2R54 inhibition (FLIPR calcium, Fluo4AM, acetaminophen as bitter agonist)). Settings: Table 2; cells stably expressing hT2R54 and a promiscuous G protein; read-out: hT2R54 IC50.
T1 construct: expressed in transfected cells; it overexpresses a promiscuous G protein
T1 sequence (P59534 1-338): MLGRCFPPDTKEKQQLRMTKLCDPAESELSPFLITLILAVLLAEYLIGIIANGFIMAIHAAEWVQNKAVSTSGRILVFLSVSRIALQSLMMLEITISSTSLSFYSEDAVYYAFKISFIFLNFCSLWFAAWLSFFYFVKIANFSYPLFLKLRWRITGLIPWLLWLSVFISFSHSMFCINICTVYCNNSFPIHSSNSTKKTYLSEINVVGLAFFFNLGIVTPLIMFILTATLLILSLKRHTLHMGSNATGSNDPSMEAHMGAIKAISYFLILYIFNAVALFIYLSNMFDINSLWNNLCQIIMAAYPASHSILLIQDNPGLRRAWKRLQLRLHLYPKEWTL
Experimental: Cells stably expressing hT2R54 and a promiscuous G protein were seeded in 384 well plates 24 hours prior to the experiment. Cells were loaded with the calcium indicator Fluo4AM, washed and loaded in a FLIPR instrument with a compound plate containing increasing doses of acetaminophen in quadruplicates and prepared at 2× of final concentration. Baseline was recorded for 10 seconds, then 25 μl of […] was added onto 25 μl of cells and resulting changes in fluorescence were monitored over an additional 3 minutes. The host cell line overexpressing the G protein but not hT2R54 was treated as described above.
The ability of a test compound that blocks bitter taste elicited through hT2R54 was measured in this assay, as follows. Cells stably expressing hT2R54 and a promiscuous G protein were seeded in 384 well plates 24 hours prior to the experiment. Cells were loaded with the calcium indicator Fluo4AM, washed and loaded in a FLIPR instrument with a compound plate containing increasing doses of acetaminophen in buffer and increasing doses of acetaminophen with depicted fixed concentrations of Cmpd 109 (Table 4). Base line was recorded for 10 seconds, then 25 μl of compound and compound mixtures were added onto 25 μl of cells and resulting changes in fluorescence were monitored over an additional 3 minutes. The concentration of test compound that blocks half of the response when the bitter compound alone is present is presented as the EC50 or IC50 value.
In the examples above, the EC50 of compounds for blocking bitter taste elicited through T2R54 was measured in the same manner.

SMILES | IC50
CC(=O)c1cc2c(cc1NC(=O)CN1CCN(C(=O)Cc3ccco3)CC1)OCO2 [compound 64] | 100 nM
COc1cc2c(cc1NC(=O)CN1CCN(C(=O)CC3CCOCC3)CC1)OCO2 [compound 87] | 1040 nM
CC(=O)c1cc2c(cc1NC(=O)CN1CCN(C(=O)Cc3ccccc3O)CC1)OCO2 [compound 53] | 18 nM
CC(=O)c1cc2c(cc1NC(=O)CN1CCN(C(=O)CN3CCCC3)CC1)OCO2 [compound 27] | 176 nM
CC(=O)c1cc2c(cc1NC(=O)CN1CCN(C(=O)NCc3ccccc3)CC1)OCO2 [compound 32] | 21 nM
CC(=O)c1cc2c(cc1NC(=O)CN1CCN(C(=O)c3ccn(C)c3)CC1)OCO2 [compound 77] | 30 nM

More lines, now with the values ahead:

IC50 | SMILES
77 nM | COc1cc2c(cc1NC(=O)CN1CCN(C(=O)c3nc(C)c[nH]3)CC1)OCO2 [compound 306]
1300 nM | COc1cc2c(cc1NC(=O)CN1CCN(C(=O)c3c[nH]c(C)n3)CC1)OCO2 [compound 392]
157 nM | COCCC(=O)N1CCN(CC(=O)Nc2cc3c(cc2C(=O)OC)OCO3)CC1 [compound 312]
400 nM | COc1cc2c(cc1NC(=O)CN1CCN(C(=O)c3ccccc3)CC1)OCO2 [compound 379]
2500 nM | COc1cc2c(cc1NC(=O)CN1CCN(C(C)=O)CC1)CCC2 [compound 355]
190 nM | COCc1ccc(C(=O)N2CCN(C(C)C(=O)Nc3cc4c(cc3C(C)=O)OCCO4)CC2)cc1 (centres unmarked) [compound 413]
700 nM | COc1cc2c(cc1NC(=O)CN1CCN(C(=O)c3cc[nH]n3)CC1)OCO2 [compound 385]
600 nM | COc1cc2c(cc1NC(=O)CN1CCN(C(=O)c3cccc(F)c3)CC1)OCO2 [compound 367]
38 nM | COCc1ccc(C(=O)N2CCN(CC(=O)Nc3cc4c(cc3C(C)=O)OCO4)CC2)cc1 [compound 282]
70 nM | COCc1cc(C(=O)N2CCN(CC(=O)Nc3cc4c(cc3C(C)=O)OCO4)CC2)no1 [compound 294]

Same assay, conditions: Table 3; cells stably expressing hT2R54 and a promiscuous G protein; read-out: hT2R54 IC50

IC50 | SMILES
600 nM | CC(=O)c1cc2c(cc1NC(=O)CN1CCN(Cc3ccc(F)cc3)CC1)OCO2 [compound 104]

Same assay, conditions: Table 4; cells stably expressing hT2R54 and a promiscuous G protein; read-out: hT2R54 IC50

IC50 | SMILES
419 nM | COC(=O)c1cc2c(cc1NC(=O)CN1CCC(OC)CC1)OCO2 [compound 435]
< 2000 nM | COc1cc2c(cc1NC(=O)CN1CCC(O)CC1)OCO2 [compound 146]

Same assay, conditions: Table 5; cells stably expressing hT2R54 and a promiscuous G protein; read-out: hT2R54 IC50

IC50 | SMILES
459 nM | CC(=O)c1cc2c(cc1NC(=O)CN1CCC(C(=O)Nc3cccnc3)CC1)OCO2 [compound 163]

Same assay, conditions: Table 8; read-out: hT2R54 IC50

SMILES | IC50
CC(=O)c1cc2c(cc1NC(=O)CC1CCN(C(=O)C3CCCO3)CC1)OCO2 (centres unmarked) [compound 242] | 68 nM
CC(=O)c1cc2c(cc1NC(=O)C[C@@H]1CCCN(C(=O)c3ccco3)C1)OCO2 [compound 220] | ~10 nM
CC(=O)c1cc2c(cc1NC(=O)CC1CCN(C(=O)c3ccon3)CC1)OCO2 [compound 246] | 2310 nM
CC(=O)c1cc2c(cc1NC(=O)CC1CCN(C(=O)Cc3cccc(O)c3)CC1)OCO2 [compound 253] | 750 nM
CC(=O)c1cc2c(cc1NC(=O)CC1CCN(C(=O)c3cnn(C)c3)CC1)OCO2 [compound 201, N-(6-Acetylbenzo[d][1,3]dioxol-5-yl)-2-(1-(1-methyl-1H-pyrazole-4-carbonyl)piperidin-4-yl)acetamide] | 339 nM

Other lines, results leading:

IC50 | SMILES
113 nM | CC(=O)c1cc2c(cc1NC(=O)CC1CCCN(C(=O)c3cccnc3)C1)OCO2 (centres unmarked) [compound 506]
> 50000 nM | COc1cc2c(cc1NC(=O)CC1CCN(C(=O)c3ccncc3)CC1)OCO2 [compound 501]
70 nM | COCc1ccc(C(=O)N2CCC(CC(=O)Nc3cc4c(cc3C(C)=O)OCO4)CC2)o1 [compound 468]
> 50000 nM | CC(=O)c1cc2c(cc1NC(=O)CC1CCN(C(=O)C3CCN(C)C3)CC1)OCO2 (centres unmarked) [compound 473]
46 nM | CC(=O)c1cc2c(cc1NC(=O)CC1CCN(C(=O)c3nc(C)c[nH]3)CC1)OCO2 [compound 465]
150 nM | CC(=O)c1cc2c(cc1NC(=O)CC1CCN(C(=O)c3cc[nH]n3)CC1)OCO2 [compound 461]
928 nM | CC(=O)c1cc2c(cc1NC(=O)CC1CCN(C(C)=O)C1)OCO2 (centres unmarked) [compound 258]
